# Source: the Kinase Knowledgebase extract (Sharma et al. 2016)
# Target: PIK3CG (human) (UniProt P48736)
# Assay: Assessment of PIK3CG Kinase Activity
# Sequence of PIK3CG (human) (P48736 whole entry, looked up): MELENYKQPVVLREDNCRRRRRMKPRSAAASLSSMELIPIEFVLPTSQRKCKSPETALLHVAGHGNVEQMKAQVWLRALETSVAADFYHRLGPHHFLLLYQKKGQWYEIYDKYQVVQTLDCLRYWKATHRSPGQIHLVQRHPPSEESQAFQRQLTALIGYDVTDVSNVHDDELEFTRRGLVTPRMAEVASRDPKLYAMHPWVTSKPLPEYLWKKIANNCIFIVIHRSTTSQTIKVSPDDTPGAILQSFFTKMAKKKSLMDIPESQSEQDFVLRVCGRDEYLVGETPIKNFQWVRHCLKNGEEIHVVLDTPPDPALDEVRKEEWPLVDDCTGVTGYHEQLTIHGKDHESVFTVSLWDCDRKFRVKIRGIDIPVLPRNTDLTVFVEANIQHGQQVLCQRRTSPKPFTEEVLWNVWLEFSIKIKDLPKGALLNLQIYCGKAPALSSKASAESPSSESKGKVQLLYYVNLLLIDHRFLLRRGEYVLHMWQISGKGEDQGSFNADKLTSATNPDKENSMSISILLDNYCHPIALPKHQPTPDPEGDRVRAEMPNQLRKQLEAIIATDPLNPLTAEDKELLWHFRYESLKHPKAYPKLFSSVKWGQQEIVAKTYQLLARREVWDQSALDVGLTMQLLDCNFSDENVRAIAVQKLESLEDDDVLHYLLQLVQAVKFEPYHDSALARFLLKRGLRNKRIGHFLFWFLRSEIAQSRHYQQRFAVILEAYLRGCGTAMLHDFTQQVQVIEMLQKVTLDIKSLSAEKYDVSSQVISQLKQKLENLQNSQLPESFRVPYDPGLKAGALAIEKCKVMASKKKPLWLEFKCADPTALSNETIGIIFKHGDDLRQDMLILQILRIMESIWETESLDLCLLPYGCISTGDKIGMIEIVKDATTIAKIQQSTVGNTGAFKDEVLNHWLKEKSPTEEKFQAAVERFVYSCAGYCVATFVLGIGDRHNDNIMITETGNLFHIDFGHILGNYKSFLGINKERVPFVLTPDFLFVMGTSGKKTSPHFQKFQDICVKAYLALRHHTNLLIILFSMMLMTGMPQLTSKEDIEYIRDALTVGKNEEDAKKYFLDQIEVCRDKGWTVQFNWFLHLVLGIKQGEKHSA
row,Structure (SMILES),IC50 [nM]
1,CN(C)CCNC(=O)Nc1nc2c(s1)-c1c(cnn1-c1ccccc1)C2,< 800
2,CC(=O)Nc1nc2c(s1)-c1c(c(C)nn1-c1ccc(Cl)cc1)CC2,< 800
3,CC(=O)Nc1nc2c(s1)-c1c(cnn1-c1ccc(C(=O)N3CCC[C@H]3C(N)=O)cc1)CC2,< 800
4,CC(=O)Nc1nc2c(s1)-c1c(cnn1-c1ccc(C(=O)N[C@@H]3CCOC3=O)cc1)CC2,< 800
5,CC(=O)Nc1nc2c(s1)-c1nc(CCc3ccccc3)ncc1CC2,< 800
6,CC(=O)Nc1nc2c(s1)-c1c(cnn1-c1ccc(C(=O)N3CCCC(O)C3)cc1)CC2 (stereo not drawn),< 800
7,CC(=O)Nc1nc2c(s1)-c1c(c(-c3ccco3)nn1-c1ccccc1C)CC2,< 800
8,CC(C)c1nn(-c2ccccc2Cl)c2c1CCc1nc(NC(N)=O)sc1-2,< 800
9,CC(=O)Nc1nc2c(s1)-c1c(cnn1-c1ccc(C(=O)NCCc3cccnc3)cc1)CC2,< 800
10,CN(C)CCNC(=O)Nc1nc2c(s1)-c1c(cnn1-c1ccccc1Cl)C2,< 800
11,CC(=O)Nc1nc2c(s1)-c1c(cnn1-c1ccc(S(C)(=O)=O)cc1)C2,< 800
12,CC(=O)Nc1nc2c(s1)-c1c(cnn1-c1ccc(C(=O)N[C@H](Cc3ccc(O)cc3)C(N)=O)cc1)CC2,< 800
13,CCCN(CC)C(=O)Cc1ccc(-n2ncc3c2-c2sc(NC(C)=O)nc2CC3)cc1,< 800
14,CC(=O)Nc1nc2c(s1)-c1c(cnn1-c1ccc(C(=O)N(C)Cc3ccccc3)cc1)CC2,< 800
15,CC(=O)Nc1nc2c(s1)-c1nc(N3CCOCC3)ncc1CC2,< 800
16,CC(=O)Nc1nc2c(s1)-c1c(cnn1-c1ccccc1Br)CC2,< 800
17,CC(=O)Nc1nc2c(s1)-c1nc(-c3ccccc3)ncc1CC2,< 800
18,CC(=O)Nc1nc2c(s1)-c1c(cnn1-c1ccc(C(=O)N[C@H]3CC[C@@H](N4CCCCC4)CC3)cc1)CC2,< 800
19,CC(=O)Nc1nc2c(s1)-c1c(cnn1-c1ccc(C(=O)N[C@@H](CCc3ccccc3)C(N)=O)cc1Cl)CC2,< 800
20,CC(=O)Nc1nc2c(s1)-c1c(c(-c3ccoc3)nn1-c1ccc(Cl)cc1)CC2,< 800
21,CN(C)c1ncc2c(n1)-c1sc(N)nc1CC2,< 800
22,O=C(NCCN1CCOCC1)Nc1nc2c(s1)-c1c(cnn1-c1ccccc1)CC2,< 800
23,CC(=O)Nc1nc2c(s1)-c1nn(-c3ccccc3Cl)c(-c3ccco3)c1CC2,< 800
24,CC(=O)Nc1nc2c(s1)-c1c(cnn1-c1ccc(C(=O)N[C@H]3CC[C@H](N4CCN(S(C)(=O)=O)CC4)CC3)cc1)CC2,< 800

row,Structure (SMILES),IC50 [nM]
1,C#Cc1nn(-c2ccccc2C(F)(F)F)c2c1CCc1nc(NC(C)=O)sc1-2,< 800
2,CC(=O)Nc1nc2c(s1)-c1c(cnn1-c1ccc(CC(=O)N3CCCC(O)C3)cc1)CC2 (stereo not drawn),< 800
3,CC(=O)Nc1nc2c(s1)-c1c(cnn1-c1ccc(C(=O)NCc3nc4ccccc4n3C)cc1)CC2,< 800
4,CC(=O)Nc1nc2c(s1)-c1c(cnn1-c1ccccc1F)CC2,< 800
5,CC(=O)Nc1nc2c(s1)-c1c(cnn1-c1ccc(C(=O)N[C@@H](Cc3ccc(O)cc3)C(N)=O)cc1Cl)CC2,< 800
6,CC(=O)Nc1nc2c(s1)-c1c(cnn1-c1ccc(C(=O)NC(C)(C)CN3CCN(C)CC3)cc1)CC2,< 800
7,CC(=O)Nc1nc2c(s1)-c1c(cnn1-c1ccc(C(=O)NCCN(C)C)cc1)CC2,< 800
8,CC(=O)Nc1nc2c(s1)-c1c(cnn1-c1ccc(CC(=O)N3CCS(=O)(=O)CC3)cc1)CC2,< 800
9,CC(=O)Nc1nc2c(s1)-c1c(cnn1-c1ccc(Cl)cc1)CC2,< 800
10,CC(=O)Nc1nc2c(s1)-c1c(cnn1-c1ccc(C(=O)NCc3nc4ccccc4[nH]3)cc1)CC2,< 800
11,CC(=O)Nc1nc2c(s1)-c1c(c(NC(=O)NC(C)C)nn1-c1ccccc1Cl)CC2,< 800
12,CC(=O)Nc1nc2c(s1)-c1c(cnn1-c1ccc(C(=O)N[C@@H]3CCc4nc(N)sc4C3)cc1)CC2,< 800
13,CC(=O)Nc1nc2c(s1)-c1c(cnn1-c1cccc3ccccc13)CC2,< 800
14,CC(=O)Nc1nc2c(s1)-c1c(cnn1-c1ccc(C(=O)NCc3ccc(C(N)=O)cc3)cc1)CC2,< 800
15,CCOC(=O)c1n[nH]c2c1CCc1nc(NC(C)=O)sc1-2,< 800
16,CC(=O)Nc1nc2c(s1)-c1c(cnn1-c1ccc3ccccc3c1)CC2,< 800
17,CC(=O)Nc1nc2c(s1)-c1c(c(-c3ccccc3)nn1-c1ccccc1Br)CC2,< 800
18,CC(=O)Nc1nc2c(s1)-c1c(cnn1-c1ccc(CC(=O)N3CCCC3c3ccccn3)cc1)CC2 (stereo not drawn),< 800
19,CC(=O)Nc1nc2c(s1)-c1c(c(-c3ccco3)nn1-c1ccc(C(N)=O)cc1Cl)CC2,< 800
20,CC(=O)Nc1nc2c(s1)-c1c(cnn1-c1ccc(C(=O)NCCn3ccnc3)cc1)CC2,< 800
21,CC(=O)Nc1nc2c(s1)-c1cc([N+](=O)[O-])ccc1CC2,< 800
22,CCN(CC)CC1CCCCN1C(=O)Cc1ccc(-n2ncc3c2-c2sc(NC(C)=O)nc2CC3)cc1 (stereo not drawn),< 800
23,CC(=O)Nc1nc2c(s1)-c1c(cnn1-c1ccc(CC(=O)N3CCN(c4ccccn4)CC3)cc1)CC2,< 800
24,CC(=O)Nc1nc2c(s1)-c1c(cnn1-c1ccc(C(=O)N[C@H]3CC[C@@H](N4CCCC4)CC3)cc1)CC2,< 800
